# Experiments:
# NF-κB = NF-κB luciferase reporter (p3×κBluc), transient transfection of K562 cells; format: cell-based, human; details: TPA
# From the text: (§1) Plasmids—The pBabe-NIC-1 (pNIC-1) expression vector encoding constitutively active Notch-1 (NIC-1) was described previously (36,37,51). This vector was derived from the pBabe-puro retroviral vector and includes a cDNA sequence encoding amino acids 1759-2556 of human Notch-1 with a Myc tag fused to its carboxyl terminus. Human NIC-1 deletion mutants were generated by PCR using a full-length human Notch-1 expression vector as the template. The Notch-dependent reporter plasmid containing four CBF1 binding sites and an simian virus 40 promoter fused to luciferase (p4×CBF1luc) was described previously (52). The AP-1 reporter plasmid (p1×AP1luc) containing a collagenase promoter fragment (−73/+67) with a single AP-1 binding site in the luciferase reporter vector pGL2-basic (Promega) was described previously (53). The NF-κB reporter plasmid (p3×κBluc) containing three NF-κB binding sites and a minimal promoter fused to luciferase was a kind gift of Dr. Shigeki Miyamoto (University of Wisconsin Medical School). […]
# (§2) For each transfection, cells were incubated for 26 h after transfection and then treated with TPA (final concentration: 5 nM) or the vehicle (DMSO). […] Luciferase activity was normalized by the protein content of the lysates, determined by Bradford assay using γ-globulin as a standard.
# human Aγ globin promoter = assay: pGL3γLuc reporter, transient transfection of K562 cells; format: cell-based
# Experimental: Transient Transfections—K562 cells (5×10^5) were collected by centrifugation at 240×g for 8 min at 4° C. and resuspended in 4 ml of complete IMEM. Plasmid DNAs (1 μg of reporter and 2 μg of effector) were added to 150 μl of IMEM, incubated with Superfect (4 μl/1 μg DNA; Qiagen) for 10 min at room temperature and then added to cells.
# For each transfection, cells were incubated for 26 h after transfection and then treated with TPA (final concentration: 5 nM) or the vehicle (DMSO). After incubating for another 12 or 16 h, cells were harvested and assayed for luciferase activity. Luciferase activity was normalized by the protein content of the lysates, determined by Bradford assay using γ-globulin as a standard.
# AP-1 = AP-1 luciferase reporter, transient transfection of HeLa cells; format: cell-based, human; details: TPA 5 nM 16 h
# From the text: as §1, §2
# CBF1 = biological target: T1, CBF1 (Homo sapiens, UniProt Q06330); assay: Coimmunoprecipitation of CBF1 with NIC-1 from K562 cell lysates; format: binding; details: K562 cells, retroviral infection
# T1 construct: endogenous in cells; host or cells: K562 cells retrovirally infected with NIC-1 expression vectors
# Experimental: Retroviral Infection—Modified 293 human embryonic kidney cells were grown in 10 cm dishes until they were subconfluent and were cotransfected with plasmid DNA (15 μg) and pMD.G (6 μg) by the calcium phosphate transfection method as described previously (55). The medium was changed once after 10 h of transfection to remove the calcium phosphate. The pMD.G expression vector encodes the viral envelope protein VSV-G. The modified 293 cells were previously stably transfected with pol and gag genes (gift of Shigeki Miyamoto, University of Wisconsin Medical School). After additional incubation for 12 h, the medium was removed and K562 cells (10 ml, 3×10^5/ml) were added with polybrene (4 μg/ml) in complete IMEM and incubated for 36 h. The infected cells were separated from adherent 293 cells and then subjected to immunoprecipitation analysis.
# Western Blotting—To detect the expression of Myc-tagged wild type NIC-1 and NIC-1 mutants, whole cell lysates were prepared in Nonidet P-40 lysis buffer (50 mM Hepes, pH 7.4, 1 mM EDTA, 150 mM NaCl, 10% glycerol, 1% Nonidet P-40, 2 mM DTT, 0.2 mM phenylmethanesulfonyl fluoride, and 20 μg/ml leupeptin). […] The proteins were transferred to an Immobilon P membrane (Millipore) and detected by immunoblotting with the anti-Myc tag monoclonal antibody 9E10. CBF1 was detected by immunoblotting with anti-CBF1 polyclonal antisera (Lam & Bresnick, unpublished data).
# T1 sequence (Q06330 whole entry): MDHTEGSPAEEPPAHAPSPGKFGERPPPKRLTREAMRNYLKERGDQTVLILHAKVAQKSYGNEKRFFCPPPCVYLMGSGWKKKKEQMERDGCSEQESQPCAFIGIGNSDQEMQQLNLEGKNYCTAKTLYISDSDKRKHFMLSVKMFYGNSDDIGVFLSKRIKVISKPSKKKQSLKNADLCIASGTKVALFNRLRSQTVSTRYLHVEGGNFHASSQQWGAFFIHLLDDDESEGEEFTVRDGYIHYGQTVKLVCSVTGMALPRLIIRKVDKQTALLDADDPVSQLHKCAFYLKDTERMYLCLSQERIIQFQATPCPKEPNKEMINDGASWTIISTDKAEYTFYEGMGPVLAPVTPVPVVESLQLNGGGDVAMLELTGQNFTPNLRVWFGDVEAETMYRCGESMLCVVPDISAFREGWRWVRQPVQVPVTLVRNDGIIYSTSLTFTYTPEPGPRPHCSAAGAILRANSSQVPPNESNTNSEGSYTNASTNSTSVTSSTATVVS
substance,measurement,setting,value
"NIC-1: constitutively active Notch-1 intracellular domain, amino acids 1759-2556 of human Notch-1 with carboxyl-terminal Myc tag, expressed from pBabe-NIC-1",effect on TPA-induced NF-κB-dependent reporter activity,NF-κB,no effect
same,effect on TPA-induced activity of pGL3γLuc,"human Aγ globin promoter; K562, TPA-induced",without affecting
same,increase of basal activity of pGL3γLuc,"human Aγ globin promoter; K562, basal",~80%
same,repression of TPA-induced AP-1-mediated activation,AP-1,repressed
same,recovery of CBF1 in anti-NIC-1 immunoprecipitates,CBF1,coimmunoprecipitated
